Experimental findings from ChEMBL document CHEMBL4354859, “Dimerization of α-Conotoxins as a Strategy to Enhance the Inhibition of the Human α7 and α9α10 Nicotinic Acetylcholine Receptors” (J Med Chem, 2020) are described below.

Activity calls are given as the source filed them. No cut-off for these calls is given here. Numbered stars: 1 amine (or outer) side, 2 acyl side, 3 side chain; on linkers, the order of the positions; unused ones are H or OH. Bridge positions count the residues as written; N and C are the ends. Square brackets hold non-standard residues; d marks the D form. Peptide text beside a SMILES is read from it. I, II: the chains in the order shown. ξ: configuration not given here. X1 = O=C(CCOCCOCCOCCOCCOCCOCCOCCOCCOCCn1cc(CCCC(=O)[*:2])nn1)[*:1]; ξK = NCCCCC(N)C(=O)O

For experiment [1], the target named is Neuronal acetylcholine receptor subunit alpha-7 (Rattus norvegicus, UniProt Q05941). Put plainly: Inhibition of rat alpha7 nAChR.
Experiment [2] deals with T1, Neuronal acetylcholine receptor; alpha9/alpha10 (Homo sapiens, UniProt Q9GZZ6+Q9UGM1). Put plainly: Inhibition of human alpha9alpha10 nAChR expressed in Xenopus laevis oocytes assessed as inhibition of ACh-evoked currents by two-electrode voltage clamp assay. Format: cell-based. (In two-electrode clamp one electrode senses voltage and the other passes current.)
Experiment [3] addresses T2, Neuronal acetylcholine receptor subunit alpha-7 (Homo sapiens, UniProt P36544). Briefly: Inhibition of human alpha7 nAChR expressed in Xenopus laevis oocytes assessed as inhibition of ACh-evoked currents by two-electrode voltage clamp assay. Format: cell-based.
The target in experiment [4] is T2, Neuronal acetylcholine receptor subunit alpha-7. Put plainly: Reversible inhibition of human alpha7 nAChR expressed in Xenopus laevis oocytes assessed as inhibition of ACh-evoked currents by two-electrode voltage clamp assay. The class given is cell-based.
Experiment [5] deals with T3, Neuronal acetylcholine receptor; alpha9/alpha10 (Homo sapiens) (UniProt Q9UGM1+Q9GZZ6). Put plainly: Reversible inhibition of human alpha9alpha10 nAChR expressed in Xenopus laevis oocytes assessed as inhibition of ACh-evoked currents by two-electrode voltage clamp assay. Format: cell-based.
In experiment [6] the target is T2, Neuronal acetylcholine receptor subunit alpha-7. Put plainly: Inhibition of human alpha7 nAChR expressed in Xenopus laevis oocytes assessed as inhibition of ACh-evoked currents at 1 uM by two-electrode voltage clamp assay relative to control. Format: cell-based.
In experiment [7] the target is T4, Neuronal acetylcholine receptor; alpha4/beta2 (Homo sapiens) (UniProt P17787+P43681). Briefly: Inhibition of human alpha4beta2 nAChR expressed in Xenopus laevis oocytes assessed as inhibition of ACh-evoked currents at 100 nM by two-electrode voltage clamp assay. Format: cell-based.
Experiment [8] concerns the target T1, Neuronal acetylcholine receptor; alpha9/alpha10. Put plainly: Inhibition of human alpha9alpha10 nAChR expressed in Xenopus laevis oocytes expressing alpha9:alpha10 mRNA injection ratio of 1:3 assessed as inhibition of ACh-evoked currents by two-electrode voltage clamp assay. The class given is cell-based.
In experiment [9] the target is T4, Neuronal acetylcholine receptor; alpha4/beta2 (Homo sapiens). Put plainly: Inhibition of human alpha4beta2 nAChR expressed in Xenopus laevis oocytes assessed as inhibition of ACh-evoked currents at 1 uM by two-electrode voltage clamp assay. Format: cell-based.
Experiment [10] deals with T5, Neuronal acetylcholine receptor; alpha3/beta4 (Homo sapiens) (UniProt P30926+P32297). Put plainly: Inhibition of human alpha3beta4 nAChR expressed in Xenopus laevis oocytes assessed as inhibition of ACh-evoked currents at 1 uM by two-electrode voltage clamp assay. The class given is cell-based.
Experiment [11] has as its target T6, Neuronal acetylcholine receptor; alpha3/beta2 (Homo sapiens) (UniProt P17787+P32297). Put plainly: Inhibition of human alpha3beta2 nAChR expressed in Xenopus laevis oocytes assessed as inhibition of ACh-evoked currents at 100 nM by two-electrode voltage clamp assay. The class given is cell-based.
For experiment [12], the target named is T3, Neuronal acetylcholine receptor; alpha9/alpha10 (Homo sapiens). Briefly: Inhibition of human alpha9alpha10 nAChR expressed in Xenopus laevis oocytes assessed as inhibition of ACh-evoked currents at 100 nM by two-electrode voltage clamp assay. Format: cell-based.
Experiment [13] has the same target. Briefly: Inhibition of human alpha9alpha10 nAChR expressed in Xenopus laevis oocytes assessed as inhibition of ACh-evoked currents at 1 uM by two-electrode voltage clamp assay. The class given is cell-based.
Experiment [14] has as its target T5, Neuronal acetylcholine receptor; alpha3/beta4 (Homo sapiens). Put plainly: Inhibition of human alpha3beta4 nAChR expressed in Xenopus laevis oocytes assessed as inhibition of ACh-evoked currents at 100 nM by two-electrode voltage clamp assay. The class given is cell-based.
Experiment [15] concerns the target T6, Neuronal acetylcholine receptor; alpha3/beta2 (Homo sapiens). Put plainly: Inhibition of human alpha3beta2 nAChR expressed in Xenopus laevis oocytes assessed as inhibition of ACh-evoked currents at 1 uM by two-electrode voltage clamp assay relative to control. The class given is cell-based.

T2 sequence (P36544 whole entry): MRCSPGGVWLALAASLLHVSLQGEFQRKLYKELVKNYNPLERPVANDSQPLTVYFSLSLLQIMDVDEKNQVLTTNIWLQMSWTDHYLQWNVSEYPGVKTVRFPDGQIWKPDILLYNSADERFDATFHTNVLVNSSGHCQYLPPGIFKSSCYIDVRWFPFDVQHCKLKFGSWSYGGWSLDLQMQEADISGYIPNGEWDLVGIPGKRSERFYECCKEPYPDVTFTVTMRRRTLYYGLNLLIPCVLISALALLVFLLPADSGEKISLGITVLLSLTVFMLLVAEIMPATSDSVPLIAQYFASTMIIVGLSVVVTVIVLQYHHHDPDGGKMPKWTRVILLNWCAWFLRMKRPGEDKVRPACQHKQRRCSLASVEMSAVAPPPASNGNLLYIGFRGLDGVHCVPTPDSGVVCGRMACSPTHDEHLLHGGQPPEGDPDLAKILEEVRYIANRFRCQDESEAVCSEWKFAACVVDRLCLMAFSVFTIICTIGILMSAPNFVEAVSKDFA
T1 sequence (Q9UGM1 whole entry): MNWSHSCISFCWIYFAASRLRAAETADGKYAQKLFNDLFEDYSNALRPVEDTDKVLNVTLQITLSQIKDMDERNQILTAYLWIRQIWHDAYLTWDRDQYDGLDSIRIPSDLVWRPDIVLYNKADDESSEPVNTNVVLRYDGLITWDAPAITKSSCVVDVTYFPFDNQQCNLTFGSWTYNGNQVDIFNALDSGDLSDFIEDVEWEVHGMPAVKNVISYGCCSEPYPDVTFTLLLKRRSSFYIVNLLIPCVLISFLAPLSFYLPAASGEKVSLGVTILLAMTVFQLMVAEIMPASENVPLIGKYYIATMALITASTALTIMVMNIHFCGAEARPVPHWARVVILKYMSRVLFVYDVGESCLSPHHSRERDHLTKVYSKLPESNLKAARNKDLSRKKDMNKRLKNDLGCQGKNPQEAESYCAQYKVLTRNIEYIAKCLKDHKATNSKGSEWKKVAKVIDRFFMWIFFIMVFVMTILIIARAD
T1 sequence (Q9GZZ6 whole entry): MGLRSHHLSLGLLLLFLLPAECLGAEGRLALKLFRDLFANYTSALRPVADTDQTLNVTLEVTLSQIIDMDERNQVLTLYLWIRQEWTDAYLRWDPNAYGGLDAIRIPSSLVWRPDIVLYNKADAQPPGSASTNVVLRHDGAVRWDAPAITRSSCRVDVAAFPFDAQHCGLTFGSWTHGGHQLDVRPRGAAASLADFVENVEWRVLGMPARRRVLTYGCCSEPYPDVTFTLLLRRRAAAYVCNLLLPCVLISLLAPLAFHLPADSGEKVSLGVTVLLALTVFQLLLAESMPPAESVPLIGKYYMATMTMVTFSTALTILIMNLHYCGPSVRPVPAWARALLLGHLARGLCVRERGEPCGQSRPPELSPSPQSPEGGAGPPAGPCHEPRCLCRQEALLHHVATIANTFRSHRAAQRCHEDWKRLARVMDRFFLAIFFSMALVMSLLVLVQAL
Sequence of Neuronal acetylcholine receptor subunit alpha-7 (Rattus norvegicus, UniProt Q05941) (Q05941 whole entry): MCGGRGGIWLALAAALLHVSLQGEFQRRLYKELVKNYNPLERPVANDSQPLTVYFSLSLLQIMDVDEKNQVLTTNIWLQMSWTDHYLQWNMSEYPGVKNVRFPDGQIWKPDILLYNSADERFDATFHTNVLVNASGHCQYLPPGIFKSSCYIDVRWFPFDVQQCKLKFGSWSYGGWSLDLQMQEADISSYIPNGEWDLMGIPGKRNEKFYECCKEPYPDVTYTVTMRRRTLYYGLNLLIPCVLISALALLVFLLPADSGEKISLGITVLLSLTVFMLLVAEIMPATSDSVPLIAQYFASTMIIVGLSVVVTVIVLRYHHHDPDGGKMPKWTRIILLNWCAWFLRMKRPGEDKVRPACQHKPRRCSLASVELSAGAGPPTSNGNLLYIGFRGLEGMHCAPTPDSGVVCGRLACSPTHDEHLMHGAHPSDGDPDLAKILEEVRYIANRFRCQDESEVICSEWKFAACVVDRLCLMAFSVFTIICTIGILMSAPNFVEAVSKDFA

For orientation: IC50 means the concentration at which inhibition is half-maximal. In experiment [1], `N=C(N)NCCC[C@H](NC(=O)[C@@H]1CSSC[C@@H]2NC(=O)[C@@H](NC(=O)CN)CSSC[C@H](NC(=O)[C@H](CCCNC(=N)N)NC(=O)[C@@H]3CCCN3C(=O)[C@H](CC(=O)O)NC(=O)[C@H](CO)NC2=O)C(=O)N[C@@H](CCCNC(=N)N)C(=O)N[C@@H](Cc2ccc(O)cc2)C(=O)N[C@@H](CCCNC(=N)N)C(=O)N1)C(=O)O` had an IC50 of 4.66 µM.
As for `CC[C@H](C)[C@@H]1NC(=O)[C@H](CCC(=O)O)NC(=O)[C@@H]2CCCN2C(=O)[C@H](Cc2cnc[nH]2)NC(=O)[C@H](CC(=O)O)NC(=O)[C@H](Cc2ccc(O)cc2)NC(=O)[C@H](CC(N)=O)NC(=O)[C@@H]2CSSC[C@H](NC(=O)CN)C(=O)N[C@@H](CSSC[C@@H](C(N)=O)NC1=O)C(=O)N[C@@H](CO)C(=O)N[C@@H](CC(=O)O)C(=O)N1CCC[C@H]1C(=O)N[C@@H](CCCNC(=N)N)C(=O)N2`, the IC50 is 1000 nM in experiment [2] and over 10000 nM in [3].
With `C[C@@H]1NC(=O)[C@@H]2CSSC[C@H](NC(=O)CN)C(=O)N[C@@H](CSSC[C@@H](C(N)=O)NC(=O)[C@H](CCCNC(=N)N)NC(=O)[C@H](Cc3c[nH]c4ccccc34)NC1=O)C(=O)N[C@@H](CO)C(=O)N[C@@H](CC(=O)O)C(=O)N1CCC[C@H]1C(=O)N[C@@H](CCCNC(=N)N)C(=O)N2`, in [3], the IC50 was 1000 nM.
Usually inhibition stands for the change of the read-out against control, counted positive when it falls. Take `CC[C@H](C)[C@@H]1NC(=O)[C@H](CCC(=O)O)NC(=O)[C@@H]2CCCN2C(=O)[C@H](Cc2cnc[nH]2)NC(=O)[C@H](CC(=O)O)NC(=O)[C@H](Cc2ccc(O)cc2)NC(=O)[C@H](CC(N)=O)NC(=O)[C@@H]2CSSC[C@H](NC(=O)CNC(=O)CCOCCOCCOCCOCCOCCOCCOCCOCCOCCn3cc(CCCC(=O)NCCCCC(NC(=O)CCCc4cn(CCOCCOCCOCCOCCOCCOCCOCCOCCOCCC(=O)NCC(=O)N[C@H]5CSSC[C@@H]6NC(=O)[C@H](CCCNC(=N)N)NC(=O)[C@@H]7CCCN7C(=O)[C@H](CC(=O)O)NC(=O)[C@H](CO)NC(=O)[C@H](CSSC[C@@H](C(N)=O)NC(=O)[C@H]([C@@H](C)CC)NC(=O)[C@H](CCC(=O)O)NC(=O)[C@@H]7CCCN7C(=O)[C@H](Cc7cnc[nH]7)NC(=O)[C@H](CC(=O)O)NC(=O)[C@H](Cc7ccc(O)cc7)NC(=O)[C@H](CC(N)=O)NC6=O)NC5=O)nn4)C(=O)NCC(=O)N[C@@H](CCCNC(=N)N)C(=O)N[C@@H](CCCNC(=N)N)C(=O)N[C@@H](CCCNC(=N)N)C(=O)N[C@@H](CCCNC(=N)N)C(=O)NCC(N)=O)nn3)C(=O)N[C@@H](CSSC[C@@H](C(N)=O)NC1=O)C(=O)N[C@@H](CO)C(=O)N[C@@H](CC(=O)O)C(=O)N1CCC[C@H]1C(=O)N[C@@H](CCCNC(=N)N)C(=O)N2` (some centres undefined): the inhibition entry in experiment [4] and in experiment [5] was “Dose-dependent effect” each time. Besides, the IC50 in experiment [2] was 266 nM; in [3] it was over 10000 nM.
Regarding `N=C(N)NCCC[C@@H]1NC(=O)[C@H](Cc2ccc(O)cc2)NC(=O)[C@H](CCCNC(=N)N)NC(=O)[C@@H]2CSSC[C@H](NC(=O)CN)C(=O)N[C@@H](CSSC[C@@H](C(N)=O)NC1=O)C(=O)N[C@@H](CO)C(=O)N[C@@H](CC(=O)O)C(=O)N1CCC[C@H]1C(=O)N[C@@H](CCCNC(=N)N)C(=O)N2` (H-GCCSDPRCRYRC-NH2; disulfide 2-8, 3-12), the results for the IC50 in [2] and in experiment [3] were 249 nM and over 1000 nM, respectively. In [6], the inhibition was found to be 20%.
In the case of `CC(C)C[C@@H]1NC(=O)[C@H](CCC(=O)O)NC(=O)[C@@H]2CCCN2C(=O)[C@H](Cc2cnc[nH]2)NC(=O)[C@H](CC(N)=O)NC(=O)[C@H](C(C)C)NC(=O)[C@H](CO)NC(=O)[C@@H]2CSSC[C@H](NC(=O)CN)C(=O)N[C@@H](CSSC[C@@H](C(N)=O)NC1=O)C(=O)N[C@@H](CO)C(=O)N[C@@H](Cc1cnc[nH]1)C(=O)N1CCC[C@H]1C(=O)N[C@@H](C)C(=O)N2` (H-GCCSHPACSVNHPELC-NH2; disulfide 2-8, 3-16), the IC50 in experiment [3] was over 10000 nM.
As to `N=C(N)NCCC[C@H](NC(=O)CNC(=O)C(CCCCNC(=O)CCCc1cn(CCOCCOCCOCCOCCOCCOCCOCCOCCOCCC(=O)NCC(=O)N[C@H]2CSSC[C@@H]3NC(=O)[C@H](CCCNC(=N)N)NC(=O)[C@@H]4CCCN4C(=O)[C@H](CC(=O)O)NC(=O)[C@H](CO)NC(=O)[C@H](CSSC[C@@H](C(N)=O)NC(=O)[C@H](CCCNC(=N)N)NC(=O)[C@H](Cc4ccc(O)cc4)NC(=O)[C@H](CCCNC(=N)N)NC3=O)NC2=O)nn1)NC(=O)CCCc1cn(CCOCCOCCOCCOCCOCCOCCOCCOCCOCCC(=O)NCC(=O)N[C@H]2CSSC[C@@H]3NC(=O)[C@H](CCCNC(=N)N)NC(=O)[C@@H]4CCCN4C(=O)[C@H](CC(=O)O)NC(=O)[C@H](CO)NC(=O)[C@H](CSSC[C@@H](C(N)=O)NC(=O)[C@H](CCCNC(=N)N)NC(=O)[C@H](Cc4ccc(O)cc4)NC(=O)[C@H](CCCNC(=N)N)NC3=O)NC2=O)nn1)C(=O)N[C@@H](CCCNC(=N)N)C(=O)N[C@@H](CCCNC(=N)N)C(=O)N[C@@H](CCCNC(=N)N)C(=O)NCC(N)=O` (some centres undefined) (I: GCCSDPRCRYRC-NH2 / II: GCCSDPRCRYRC-NH2 / III: [ξK]GRRRRG-NH2; disulfide I:2-I:8, I:3-I:12, II:2-II:8, II:3-II:12; linker I:N-III:1, II:N-III:N via X1), the inhibition entry in [7], in [9], in [10] and in [14] was “inactive” each time. Further, the inhibition result is “Dose-dependent effect” in experiment [4], “Dose-dependent effect” in experiment [5] and 60% in experiment [15]. Besides, the IC50 in experiment [2] worked out at 38.5 nM; in experiment [8], 117 nM; in [3] it was 63.1 nM. The inhibition result in experiment [11], in experiment [12] and in experiment [13] was “Active” in each case.
For the compound `CC(C)C[C@@H]1NC(=O)[C@H](CCC(=O)O)NC(=O)[C@@H]2CCCN2C(=O)[C@H](Cc2cnc[nH]2)NC(=O)[C@H](CC(N)=O)NC(=O)[C@H](C(C)C)NC(=O)[C@H](CO)NC(=O)[C@@H]2CSSC[C@H](NC(=O)CNC(=O)CCOCCOCCOCCOCCOCCOCCOCCOCCOCCn3cc(CCCC(=O)NCCCCC(NC(=O)CCCc4cn(CCOCCOCCOCCOCCOCCOCCOCCOCCOCCC(=O)NCC(=O)N[C@H]5CSSC[C@@H]6NC(=O)[C@H](C)NC(=O)[C@@H]7CCCN7C(=O)[C@H](Cc7cnc[nH]7)NC(=O)[C@H](CO)NC(=O)[C@H](CSSC[C@@H](C(N)=O)NC(=O)[C@H](CC(C)C)NC(=O)[C@H](CCC(=O)O)NC(=O)[C@@H]7CCCN7C(=O)[C@H](Cc7cnc[nH]7)NC(=O)[C@H](CC(N)=O)NC(=O)[C@H](C(C)C)NC(=O)[C@H](CO)NC6=O)NC5=O)nn4)C(=O)NCC(=O)N[C@@H](CCCNC(=N)N)C(=O)N[C@@H](CCCNC(=N)N)C(=O)N[C@@H](CCCNC(=N)N)C(=O)N[C@@H](CCCNC(=N)N)C(=O)NCC(N)=O)nn3)C(=O)N[C@@H](CSSC[C@@H](C(N)=O)NC1=O)C(=O)N[C@@H](CO)C(=O)N[C@@H](Cc1cnc[nH]1)C(=O)N1CCC[C@H]1C(=O)N[C@@H](C)C(=O)N2` (some centres undefined) (I: GCCSHPACSVNHPELC-NH2 / II: GCCSHPACSVNHPELC-NH2 / III: [ξK]GRRRRG-NH2; disulfide I:2-I:8, I:3-I:16, II:2-II:8, II:3-II:16; linker I:N-III:1, II:N-III:N via X1), the inhibition entry in [4] and in experiment [5] was “Dose-dependent effect” in each case. Moreover, the IC50 in experiment [2] came to 1.9 nM; in experiment [3], 354 nM.
